# Assay: thermodynamic (Steady State Affinity) binding analysis: A subset of compounds was further characterized to determine dissociation constants using thermodynamic (Steady State Affinity) binding analysis.
row,Structure (SMILES),Kd
1,Nc1nc([O-])c2c(n1)n([C@H]1O[C@@H](COP(=O)(O)O)[C@H](O)[C@@H]1O)c[n+]2Cc1ccccc1CS(=O)(=O)c1ccccc1,30 nM
2,Nc1nc([O-])c2c(n1)n([C@H]1O[C@@H](COP(=O)(O)O)[C@H](O)[C@@H]1O)c[n+]2Cc1ccc(-c2ccccc2F)cc1,410 nM
3,Nc1nc([O-])c2c(n1)n([C@H]1O[C@@H](COP(=O)(O)O)[C@H](O)[C@@H]1O)c[n+]2Cc1cccc(OCc2ccccc2)c1,580 nM
4,Nc1nc([O-])c2c(n1)n([C@H]1O[C@@H](COP(=O)(O)O)[C@H](O)[C@@H]1O)c[n+]2Cc1ccc(-c2ccccc2)c(Cl)c1,110 nM
5,CO[C@H]1[C@@H](O)[C@H](COP(=O)(O)O)O[C@@H]1n1c[n+](CCOc2ccc(Cl)cc2)c2c([O-])nc(N)nc21,160 nM
6,Nc1nc([O-])c2c(n1)n([C@H]1O[C@@H](COP(=O)(O)O)[C@H](O)[C@@H]1O)c[n+]2Cc1cccc(Oc2ccccc2)c1,220 nM
7,Nc1nc([O-])c2c(n1)n([C@H]1O[C@@H](COP(=O)(O)O)[C@H](O)[C@@H]1O)c[n+]2Cc1ccc(-c2ccccc2)cc1,300 nM

# From ChEMBL document CHEMBL5727817, “3′ end caps, 5′ end caps and combinations thereof for therapeutic RNA” (2020)
